Here are results for 16 compounds from patent publication US20210315893A1 (Galapagos NV, priority 2017, published 2021).

The target in assay [1] is T1, human GPCR sphingosine 1-phosphate receptor 5 (Homo sapiens, UniProt Q9H228).
T1 construct: host or cells: CHO
The assay is described as follows: S1PR5 selectivity Ca2+ flux assay (antagonist readout). The conditions noted are these: CHO cells overexpressing human S1PR5 and Gq, agonist at EC80 (20 nM), read-out: S1P5 EC50 (nM), S1P5 antagonist EC50. It is filed as cell-based. The procedure, abridged: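 Antagonist readout: after 15 min compound preincubation at 37° C, human S1PR5/Gq CHO cells loaded with Fluo 8 dye received an EC80 challenge of S1PR5-specific agonist, and fluorescence was recorded for 3 min. Maximal-over-background ratios, normalized as % inhibition, gave IC50 by logistic fit.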

For assay [2], the target named is T2, human GPCR sphingosine 1-phosphate receptor 2 (Homo sapiens, UniProt O95136).
T2 construct: host or cells: CHO
T2 sequence (O95136 whole entry): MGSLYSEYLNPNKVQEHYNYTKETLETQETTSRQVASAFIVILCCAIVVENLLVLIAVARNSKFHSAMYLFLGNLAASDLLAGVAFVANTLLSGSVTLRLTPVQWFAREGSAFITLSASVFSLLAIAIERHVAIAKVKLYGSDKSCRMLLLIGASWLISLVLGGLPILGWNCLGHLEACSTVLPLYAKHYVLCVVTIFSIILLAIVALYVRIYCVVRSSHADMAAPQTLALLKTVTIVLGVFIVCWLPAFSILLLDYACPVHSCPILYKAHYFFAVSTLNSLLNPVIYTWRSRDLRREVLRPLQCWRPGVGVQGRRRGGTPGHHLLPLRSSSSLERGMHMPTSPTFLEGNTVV
The assay is described as follows: S1PR2 antagonist Ca2+ flux assay. It is filed as cell-based. As to conditions: antagonist mode, CHO-S1PR2 cells, S1P at EC80, Ca2+ fluorescence; read-out: S1P2 EC50 (nM), S1P2 antagonist EC50. Put shortly:
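Antagonist mode: 15 min after compound addition, S1P (EC80) stimulates Fluo8-loaded, 1 h-starved CHO-S1PR2 cells, Ca2+ read over 3 min; a prior 3-min read checks compound agonism. EC50 from peak/baseline fluorescence ratio, normalised versus vehicle and S1P EC50 (antagonist) or EC100 (agonist).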
On the technique in general: A change in cytosolic calcium serves as a functional read-out for many receptors and channels.

In another assay the target is T3, S1PR2 (Homo sapiens, UniProt O95136).
T3 construct: expressed in transfected cells
T3 sequence (O95136 whole entry): as above
The assay is described as follows: S1PR2 binding assay (competition with radioactively labeled S1P, SpA). The conditions noted are these: membranes from stable cell line over expressing S1PR2, SpA beads; read-out: S1P2 EC50 (nM), S1PR2 binding EC50. The procedure, abridged: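 Scintillation proximity read-out after 2 h room-temperature incubation of compound, [3H]S1P and S1PR2-overexpressing cell membranes on WGA-coated beads. Buffer: 20 mM Tris pH 7.5, 100 mM NaCl, 10 mM MgCl2, 1 mM Na3VO4, 0.4% fatty-acid-free BSA; plates counted immediately after centrifugation.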

Assay [3] addresses T4, human GPCR sphingosine 1-phosphate receptor 1 (Homo sapiens, UniProt P21453).
T4 construct: host or cells: CHO
Kind of assay: S1PR1 selectivity Ca2+ flux assay (antagonist readout). In kind it is cell-based. As to conditions: antagonist readout, CHO cells overexpressing human S1PR1 and Gq, S1P at EC80 (6 nM); read-out: S1P1 EC50 (nM), S1P1 antagonist EC50. The procedure, abridged:
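Antagonist mode: S1P challenge follows 15 min compound preincubation at 37 °C. Cells are CHO stably expressing human S1PR1, serum-starved 1 h (0.1% FAF BSA), loaded with Fluo 8. Peak-over-baseline fluorescence ratio is normalized to positive/negative controls; IC50 from logistic curve fit.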

Assay [4] has as its system HFL-1 cells. Kind of assay: IL-8 production assay (S1P induced IL-8). In kind it is cell-based. The conditions noted are these: Homo sapiens, HFL1; S1P (1 μM) induced IL-8 in HFL-1 cells, starvation medium without HSA; read-out: IL8 EC50. Put shortly: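 HFL-1 fibroblasts in low-serum medium were pretreated 1 h with a 10-point 1/3 series of compound starting at 30 μM (0.3% DMSO).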

Assay [5] relates to HFL-1 cells. Kind of assay: IL8 assay in the presence of Human Serum Albumin. As to conditions: HFL1, read-out: HSA IL8 EC50.

Bounds are passed on as bounds.

T1 sequence (Q9H228 whole entry): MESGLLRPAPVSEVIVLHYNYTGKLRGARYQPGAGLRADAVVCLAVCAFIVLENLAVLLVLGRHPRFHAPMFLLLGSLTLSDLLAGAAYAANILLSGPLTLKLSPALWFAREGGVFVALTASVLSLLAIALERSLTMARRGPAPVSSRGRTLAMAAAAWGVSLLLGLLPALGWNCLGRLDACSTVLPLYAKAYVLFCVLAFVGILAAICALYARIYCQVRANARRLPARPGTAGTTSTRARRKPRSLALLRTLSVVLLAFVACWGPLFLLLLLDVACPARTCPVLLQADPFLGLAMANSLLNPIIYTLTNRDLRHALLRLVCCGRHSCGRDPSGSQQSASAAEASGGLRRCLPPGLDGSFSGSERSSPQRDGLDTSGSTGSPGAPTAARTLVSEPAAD
T4 sequence (P21453 whole entry): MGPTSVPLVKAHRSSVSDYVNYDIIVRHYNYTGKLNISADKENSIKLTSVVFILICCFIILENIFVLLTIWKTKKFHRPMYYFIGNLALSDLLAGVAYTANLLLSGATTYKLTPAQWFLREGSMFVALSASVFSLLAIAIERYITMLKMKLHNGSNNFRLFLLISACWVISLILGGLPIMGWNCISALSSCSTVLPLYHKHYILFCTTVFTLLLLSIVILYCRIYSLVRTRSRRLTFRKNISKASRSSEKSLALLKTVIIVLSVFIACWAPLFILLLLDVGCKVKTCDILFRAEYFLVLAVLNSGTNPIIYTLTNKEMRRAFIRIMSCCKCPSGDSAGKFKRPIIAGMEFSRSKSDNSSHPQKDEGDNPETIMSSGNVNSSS

For orientation: EC50 means the concentration at which the effect is half-maximal. Regarding `O=C(O)c1cn(Cc2cn3cc(OCC4CC4)c(Cl)cc3n2)c2ccccc2c1=O` [Compound 84, 1-[[7-chloro-6-(cyclopropylmethoxy)imidazo[1,2-a]pyridin-2-yl]methyl]-4-oxo-quinoline-3-carboxylic acid], the EC50 is 19800 nM in assay [1]; 41.9 nM in assay [2]; 459 nM at S1PR2; at least 19800 nM in assay [3]; 198 nM in the assay on HFL-1 cells [4]; 2460 nM in the assay with HFL-1 cells [5].

`O=C(O)c1nn(Cc2cn3cc(OCC4CC4)c(Cl)cc3n2)c2ccccc2c1=O` [Compound 85, 1-[[7-chloro-6-(cyclopropylmethoxy)imidazo[1,2-a]pyridin-2-yl]methyl]-4-oxo-cinnoline-3-carboxylic acid]: the EC50 was 19800 nM in assay [1]; 37.4 nM in assay [2]; 619 nM at S1PR2; at least 19800 nM in assay [3]; 78.9 nM in the assay on HFL-1 cells [4]; 2280 nM in the assay with HFL-1 cells [5].

As to `O=C(O)CN1CCC(n2nc(Cc3cn4cc(OCC5CC5)c(Cl)cc4n3)c3ccccc3c2=O)C1` (stereo not drawn) [Compound 87, 2-[3-[4-[[7-chloro-6-(cyclopropylmethoxy)imidazo[1,2-a]pyridin-2-yl]methyl]-1-oxo-phthalazin-2-yl]pyrrolidin-1-yl]acetic acid], the EC50 was 19800 nM in assay [1]; 149 nM in assay [2]; 178 nM at S1PR2; at least 19800 nM in assay [3]; 283 nM in the assay with HFL-1 cells [4]; 324 nM in the assay on HFL-1 cells [5].

As to `O=C(O)c1cn(Cc2nc3cc(OCC4CC4)c(Cl)cc3[nH]2)c2ccccc2c1=O` [Compound 90, 1-[[6-chloro-5-(cyclopropylmethoxy)-1H-benzimidazol-2-yl]methyl]-4-oxo-quinoline-3-carboxylic acid], the EC50 stood at 6610 nM in assay [1]; 5.29 nM in assay [2]; 13.3 nM on S1PR2; 4580 nM in assay [3]; 1.11 nM with HFL-1 cells [4]; 29.1 nM in the assay with HFL-1 cells [5].

For the compound `CC(C(=O)O)n1nc(Cn2cc3cc(OCC4CC4)c(Cl)cc3n2)c2cc(C#N)ccc2c1=O` (stereo not drawn) [Compound 92, 2-[4-[[6-chloro-5-(cyclopropylmethoxy)indazol-2-yl]methyl]-6-cyano-1-oxo-phthalazin-2-yl]propanoic acid], the half-maximal effective concentration (EC50) in assay [1] was 19800 nM; in assay [2], 8.99 nM; at S1PR2 it was 32.1 nM; in assay [3] it was 13200 nM; in the assay with HFL-1 cells [4], 4.41 nM; with HFL-1 cells [5] it was 544 nM.

As to `CC(C(=O)O)n1nc(Cn2cc3cc(OCC4CC4)c(Cl)cc3n2)c2c(c1=O)CCCC2` (stereo not drawn) [Compound 93, 2-[4-[[6-chloro-5-(cyclopropylmethoxy)indazol-2-yl]methyl]-1-oxo-5,6,7,8-tetrahydrophthalazin-2-yl]propanoic acid], the half-maximal effective concentration (EC50) is 19800 nM in assay [1]; 8.99 nM in assay [2]; 22.4 nM on S1PR2; at least 19800 nM in assay [3]; 3.04 nM in the assay on HFL-1 cells [4]; 22.8 nM in the assay with HFL-1 cells [5].

For the compound `O=C(O)C1(n2nc(Cn3cc4cc(OCC5CC5)c(Cl)cc4n3)c3ccccc3c2=O)CC1` [Compound 95, 1-[4-[[6-chloro-5-(cyclopropylmethoxy)indazol-2-yl]methyl]-1-oxo-phthalazin-2-yl]cyclopropanecarboxylic acid], the EC50 was 19800 nM in assay [1]; 19.4 nM in assay [2]; 208 nM on S1PR2; at least 19800 nM in assay [3]; 53.4 nM in the assay on HFL-1 cells [4]; 1830 nM with HFL-1 cells [5].

In the case of `COc1ccc2c(Cn3cc4cc(OCC5CC5)c(Cl)cc4n3)nn(C(C)C(=O)O)c(=O)c2c1` (stereo not drawn) [Compound 97, 2-[4-[[6-chloro-5-(cyclopropylmethoxy)indazol-2-yl]methyl]-7-methoxy-1-oxo-phthalazin-2-yl]propanoic acid], the 50% effective concentration (EC50) in assay [1] is 19800 nM; in assay [2], 53.4 nM; at S1PR2, 432 nM; in assay [3], at least 19800 nM; in the assay on HFL-1 cells [4], 60.5 nM; in the assay on HFL-1 cells [5], 5700 nM.

Consider `O=C(O)Cc1nn(Cc2cn3cc(OCC4CC4)c(Cl)cc3n2)c2cc(F)ccc2c1=O` [Compound 101, 2-[1-[[7-chloro-6-(cyclopropylmethoxy)imidazo[1,2-a]pyridin-2-yl]methyl]-7-fluoro-4-oxo-cinnolin-3-yl]acetic acid], for which the concentration giving a half-maximal response (EC50) was 19800 nM in assay [1]; 3.48 nM in assay [2]; 33.2 nM on S1PR2; at least 19800 nM in assay [3]; 6.74 nM in the assay on HFL-1 cells [4]; 154 nM with HFL-1 cells [5].

Turning to `O=C(O)c1cn(Cc2nc3cc(OCC4CC4)c(C(F)(F)F)cc3[nH]2)c2ccccc2c1=O` [Compound 106, (1-[[5-(cyclopropyl-methoxy)-6-(trifluoromethyl)-1H-benzimidazol-2-yl]methyl]-4-oxoquinoline-3-carboxylic acid)], the EC50 stood at 19800 nM in assay [1]; 3.45 nM in assay [2]; 14.1 nM on S1PR2; 830 nM in assay [3]; 1.86 nM with HFL-1 cells [4]; 98.9 nM with HFL-1 cells [5].

Regarding `CC(C(=O)O)c1nn(Cc2nc3cc(OCC4CC4)c(C#N)cc3[nH]2)c2ccccc2c1=O` (stereo not drawn) [Compound 107, 2-[1-[[6-cyano-5-(cyclopropylmethoxy)-1H-benzimidazol-2-yl]methyl]-4-oxo-cinnolin-3-yl]propanoic acid], the EC50 was 19800 nM in assay [1]; 3.49 nM in assay [2]; 52.9 nM at S1PR2; 2150 nM in assay [3]; 0.986 nM in the assay with HFL-1 cells [4]; 7.56 nM with HFL-1 cells [5].

`N#Cc1cc2[nH]c(Cn3nc(CC(=O)O)c(=O)c4ccccc43)nc2cc1OCC1CC1` [Compound 108, 2-[1-[[6-cyano-5-(cyclopropylmethoxy)-1H-benzimidazol-2-yl]methyl]-4-oxo-cinnolin-3-yl]acetic acid]: the concentration for a half-maximal effect (EC50) in assay [1] turned out to be 19800 nM; in assay [2], 2.94 nM; on S1PR2, 9.21 nM; in assay [3] it was 3080 nM; in the assay with HFL-1 cells [4], 1.54 nM; in the assay on HFL-1 cells [5], 5.89 nM.

With `O=C(O)Cn1nc(Cc2nc3cc(Cl)c(OCC4CC4)c(F)c3[nH]2)c2ccccc2c1=O` [Compound 116, 2-[4-[[5-chloro-6-(cyclopropylmethoxy)-7-fluoro-1H-benzimidazol-2-yl]methyl]-1-oxo-phthalazin-2-yl]acetic acid], the EC50 is 19900 nM in assay [1]; 25.2 nM in assay [2]; 183 nM at S1PR2; at least 19800 nM in assay [3]; 77.8 nM in the assay on HFL-1 cells [4]; 566 nM in the assay on HFL-1 cells [5].

For the compound `O=C(O)Cn1nc(Cc2nc3cc(Cl)c(OCC4CC4)cc3[nH]2)c2c(c1=O)CCCC2` [Compound 117, 2-[4-[[5-chloro-6-(cyclopropylmethoxy)-1H-benzimidazol-2-yl]methyl]-1-oxo-5,6,7,8-tetrahydrophthalazin-2-yl]acetic acid], the EC50 in assay [1] amounted to 13200 nM; in assay [2], 8.18 nM; on S1PR2 it was 33.2 nM; in assay [3] it was 1540 nM; in the assay on HFL-1 cells [4], 0.96 nM; in the assay on HFL-1 cells [5], 8.83 nM.

Consider `O=C(O)Cn1nc(Cc2nc3cc(Cl)c(OCC(F)F)cc3[nH]2)c2c(c1=O)CCCC2` [Compound 119, 2-[4-[[5-chloro-6-(2,2-difluoroethoxy)-1H-benzimidazol-2-yl]methyl]-1-oxo-5,6,7,8-tetrahydrophthalazin-2-yl]acetic acid], for which the EC50 in assay [1] was 19800 nM; in assay [2] it was 6.58 nM; on S1PR2, 23.3 nM; in assay [3] it was at least 19800 nM; in the assay with HFL-1 cells [4], 11.3 nM; with HFL-1 cells [5], 189 nM.

`COc1cc2[nH]c(Cc3nn(CC(=O)O)c(=O)c4c3CCCC4)nc2cc1Cl` [Compound 120, 2-[4-[(5-chloro-6-methoxy-1H-benzimidazol-2-yl)methyl]-1-oxo-5,6,7,8-tetrahydrophthalazin-2-yl]acetic acid]: the EC50 in assay [1] was 19800 nM; in assay [2] it was 57 nM; on S1PR2 it was 392 nM; in assay [3], at least 19800 nM; with HFL-1 cells [4], 96.7 nM; in the assay on HFL-1 cells [5] it was 822 nM.
